Source: patent US11319305B2, “Pyrimidine sulfamide derivative and preparation method and medical application thereof” (SHIJIAZHUANG SAGACITY NEW DRUG DEVELOPMENT CO., LTD., priority 2017, dated 2022)

Assays:
CYP2C9 = target: T1, CYP2C9 (Homo sapiens, UniProt P11712); test: Human liver microsomal cytochrome P450 isozyme inhibition assay, CYP2C9; format: in vitro ADME; conditions: human liver microsomes
T1 construct: Mixed human liver microsomes (HLM) were purchased from Corning Inc; tissue Corning Inc; host or cells: pooled human liver microsomes
T1 sequence (P11712 whole entry): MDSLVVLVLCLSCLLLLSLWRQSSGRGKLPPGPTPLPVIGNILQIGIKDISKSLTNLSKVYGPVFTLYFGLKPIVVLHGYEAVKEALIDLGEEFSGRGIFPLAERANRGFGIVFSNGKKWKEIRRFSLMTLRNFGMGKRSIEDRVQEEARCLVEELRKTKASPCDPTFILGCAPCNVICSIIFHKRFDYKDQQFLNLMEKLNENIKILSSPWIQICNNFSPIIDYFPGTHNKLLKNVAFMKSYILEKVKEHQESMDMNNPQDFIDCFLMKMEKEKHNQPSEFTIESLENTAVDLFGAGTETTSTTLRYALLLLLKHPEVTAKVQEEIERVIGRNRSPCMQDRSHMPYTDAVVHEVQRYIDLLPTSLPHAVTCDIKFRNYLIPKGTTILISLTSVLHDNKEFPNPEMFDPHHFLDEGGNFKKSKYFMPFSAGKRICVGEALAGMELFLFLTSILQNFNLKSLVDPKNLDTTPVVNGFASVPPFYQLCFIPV
Description: (§1) Experimental Embodiment 4: Human Liver Microsomal Cytochrome P450 Isozyme Inhibition Assay The purpose of the assay was to evaluate the inhibitory activity of the samples against human liver microsomal cytochrome P450 isozyme (CYP1A2, CYP2C9, CYP2C19, CYP2D6 and CYP3A4) using the 5-in-1 probe substrate of the CYP isozyme. Mixed human liver microsomes (HLM) were purchased from Corning Inc. (Steuben, N.Y., USA) and stored below −80° C. before use. The test compound working solution which has been diluted into serial concentrations was added to an incubation system containing human liver microsomes, probe substrates and circulating system cofactors, and a control containing solvent without the test compound was used as the enzyme activity control (100%). The concentration of the metabolite produced by the probe substrate in the sample was determined using a liquid chromatography-tandem mass spectrometry (LC-MS/MS) method. Nonlinear regression analysis was performed on the average percent activity versus concentration of subjects using SigmaPlot (V.11). The IC50 value was calculated by a three-parameter or four-parameter inverse-logarithmic equation.

CYP2D6 = target: T2, CYP2D6 (Homo sapiens, UniProt P10635); test: Human liver microsomal cytochrome P450 isozyme inhibition assay, CYP2D6; format: in vitro ADME; conditions: human liver microsomes
T2 construct: Mixed human liver microsomes (HLM) were purchased from Corning Inc; tissue Corning Inc; host or cells: pooled human liver microsomes
T2 sequence (P10635 whole entry): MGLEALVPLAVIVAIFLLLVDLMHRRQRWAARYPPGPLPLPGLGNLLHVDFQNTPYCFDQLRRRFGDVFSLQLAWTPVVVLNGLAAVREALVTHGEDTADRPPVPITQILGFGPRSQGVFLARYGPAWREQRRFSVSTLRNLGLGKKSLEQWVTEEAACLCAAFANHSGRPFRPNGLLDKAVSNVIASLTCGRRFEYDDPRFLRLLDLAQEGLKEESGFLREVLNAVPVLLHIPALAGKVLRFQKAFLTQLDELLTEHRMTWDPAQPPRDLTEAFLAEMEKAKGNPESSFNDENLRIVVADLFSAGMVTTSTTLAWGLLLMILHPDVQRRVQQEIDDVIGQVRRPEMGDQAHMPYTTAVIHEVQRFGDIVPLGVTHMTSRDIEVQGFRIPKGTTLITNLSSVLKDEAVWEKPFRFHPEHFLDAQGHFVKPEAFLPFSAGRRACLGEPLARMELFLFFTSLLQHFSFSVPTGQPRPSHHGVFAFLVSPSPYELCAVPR
Description: as §1

[1] = target: T3, Human Pregnane X Receptor (PXR) (Homo sapiens, UniProt O75469); test: Human pregnane X receptor (PXR) assay, induction of PXR-mediated CYP3A expression in DPX2 cells; format: cell-based
T3 construct: host or cells: DPX2 cells
T3 sequence (O75469 1-434): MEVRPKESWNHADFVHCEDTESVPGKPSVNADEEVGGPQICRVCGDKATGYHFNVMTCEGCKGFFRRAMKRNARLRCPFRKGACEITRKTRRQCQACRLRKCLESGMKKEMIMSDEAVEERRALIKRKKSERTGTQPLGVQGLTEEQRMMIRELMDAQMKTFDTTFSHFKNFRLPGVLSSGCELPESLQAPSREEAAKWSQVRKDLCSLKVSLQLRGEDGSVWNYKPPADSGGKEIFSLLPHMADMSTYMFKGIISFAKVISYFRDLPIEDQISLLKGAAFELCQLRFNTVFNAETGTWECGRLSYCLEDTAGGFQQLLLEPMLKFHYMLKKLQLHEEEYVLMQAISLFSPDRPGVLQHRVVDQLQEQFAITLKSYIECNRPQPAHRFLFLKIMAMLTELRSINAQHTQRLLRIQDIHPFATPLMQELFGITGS
Description: Experimental Embodiment 3: Human Pregnane X Receptor (PXR) Assay
The effect of the compounds on the induction of PXR-mediated CYP3A expression was evaluated.
1. DPX2 cells were thawn under sterile conditions.
2. DPX2 cell solution was distributed in 96-well plate (100 μL/well), and the plate was placed in a 5% CO2/37° C. incubator overnight.
3. Quantitative feeding medium was thawn in a 37° C. water bath. Positive control rifampin was thawn at room temperature. A series of test compounds and positive control dilutions were prepared in quantitative feeding medium. The cells were carefully aspirated from each wells without disturbing the cells during aspiration and the medium was discarded. 100 μL of each test compound concentration was transferred to pre-labeled wells. The operation of the positive control group and the blank group were the same. The plate was placed back into the incubator for 24 hours exposure.
(1) 7 μL of Luciferin-IPA was added to […] feeding medium, the mixture was mixed by inverting, and poured into a Luciferin-IPA reagent tank.
(2) The 96-well plate was taken out from the incubator, and the media was carefully aspirated from each wells. 50 μL of the Luciferin-IPA reagent was added to each wells, and the cell plate was placed back into the incubator for 60 minutes.
(3) During incubation, the P450-Glo buffer was poured into the Luciferin detection reagent, and the mixture was mixed by inverting.
(4) The 96-well plate was taken out from the incubator, and 40 μL of solution from each well was transferred into the corresponding white 96-well plate, and the corresponding position of each wells was consistent with the original cell plate. […]
(8) After incubation with Luciferin detection reagent for 20 minutes, a photometer (set 1-5 seconds. Readout Time) was used to measure the luminescence of each wells of the white 96-well plate. […]
(10) After incubating for 60 minutes at 37° C., the original 96-well plate was taken out of the incubator. The reader was set to the fluorescence mode, the excitation wavelength was set to 380-400 nm, the emission wavelength was set to 505 nm, and the fluorescence intensity of each wells was measured.
(11) The cell plate was taken out of the enzyme reader, and 100 μL of ONE-Glo™ detection reagent was added to each wells. […]
(12) The enzyme reader was set to 5 seconds for pre-shaking and 5 seconds for wells reading, and the fluorescence intensity in each hole was measured. […]
The positive control was rifampicin, six concentrations were tested in each experiment. The data was analyzed using Prism to generate a concentration-response curve and the EC50 value of the compound was calculated.

CYP3A4 = target: T4, CYP3A4 (Homo sapiens, UniProt P08684); test: Human liver microsomal cytochrome P450 isozyme inhibition assay, CYP3A4; format: in vitro ADME; conditions: human liver microsomes
T4 construct: Mixed human liver microsomes (HLM) were purchased from Corning Inc; tissue Corning Inc; host or cells: pooled human liver microsomes
T4 sequence (P08684 whole entry): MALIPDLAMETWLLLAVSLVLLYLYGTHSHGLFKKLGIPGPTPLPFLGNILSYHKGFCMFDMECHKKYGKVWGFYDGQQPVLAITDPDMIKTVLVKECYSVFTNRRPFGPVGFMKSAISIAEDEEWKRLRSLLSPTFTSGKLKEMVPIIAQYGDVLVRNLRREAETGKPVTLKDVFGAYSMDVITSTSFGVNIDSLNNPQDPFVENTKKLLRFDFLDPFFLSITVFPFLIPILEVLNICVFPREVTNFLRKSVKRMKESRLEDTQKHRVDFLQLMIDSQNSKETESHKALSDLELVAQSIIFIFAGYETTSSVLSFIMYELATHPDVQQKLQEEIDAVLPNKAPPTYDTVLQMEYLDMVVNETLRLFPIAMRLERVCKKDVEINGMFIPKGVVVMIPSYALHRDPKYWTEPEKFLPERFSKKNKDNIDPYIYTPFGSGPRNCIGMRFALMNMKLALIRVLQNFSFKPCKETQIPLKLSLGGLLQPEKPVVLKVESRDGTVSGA
Description: as §1

- IC50 (CYP2C9): > 50 µM
- IC50 (CYP2D6): > 50 µM
- induction effect on PXR-mediated CYP3A expression (in words) [1]: relatively weak induction effect
- EC50 ([1]; DPX2 cells, 24 hours exposure, ± is calculation error of simulation curve, read-out: EC50, induction effect on PXR-mediated CYP3A expression): 27.6 ± 1.33 µM
- IC50 (CYP3A4): 18 µM
Compound: COCCNS(=O)(=O)Nc1ncnc(OCCOc2ncc(Br)cn2)c1-c1ccc2c(c1)OCO2 [WX013]
